This passage reports pKa results from the pKa sets of Baltruschat and Czodrowski (2020).

SMILES strings stand for the structures. “And” between values parts separate entries of the source, which are not always exact repeats. Equal values may be shown once.

One may read the pKa as the pH at which an ionisable group is half protonated. Low values mean a stronger acid or weaker base, high ones a weaker acid or stronger base. On to `COc1cc(Nc2c3ccccc3nc3ccccc23)ccc1NS(C)(=O)=O`, for which the pKa turned out to be 7.03.

The molecule `NS(=O)(=O)CCc1ccc(Nc2c3ccccc3nc3ccccc23)cc1` registered a pKa of 7.43.

On to `COc1cc(NS(C)(=O)=O)ccc1Nc1c2ccccc2nc2ncccc12`, for which the pKa stood at 6.09.

Molecule `COC(=O)C(c1ccccc1)C1CCCCN1` (stereo unspecified) yielded a pKa of 9.24.

`C[N+](C)(C)Cc1ccc(S)cc1`: the pKa amounted to 5.5.

The molecule `Cc1cnc(NCCc2ccccc2)c(=O)n1CC(=O)NCc1ccc(C(=N)N)cc1` came in with a pKa of 10.2.

Regarding `COc1cc(NS(C)(=O)=O)ccc1Nc1c2ccccc2nc2cc(NC(C)=O)ccc12`, the pKa came out at 7.56.

On to `CCCCNC(=O)NS(=O)(=O)c1ccc(C)cc1`, for which the pKa amounted to 5.3.

The molecule `BP(=O)(OC[C@H]1O[C@@H](n2cnc3c(N)nc(SC)nc32)[C@H](O)[C@@H]1O)OP(=O)(O)CP(=O)(O)O` (stereo partly specified) came in with a pKa of 8.4.

For the molecule `CS(=O)(=O)c1ccc(Nc2c3ccccc3nc3ccccc23)cc1`, the pKa was 5.81.

With `O=P(O)(O)CCc1ccccc1`, the pKa is 2.34.

`CN(C)CCNC1=Nc2cccc3cccc(c23)N1` displayed a pKa of 6.

Molecule `CN(C)CC(C)(C)CCc1ccc(C(C)(C)C)cc1` yielded a pKa of 9.4.

`COc1cccc(S(=O)(=O)Nc2cccn(CC(=O)NCc3ccc(C(=N)N)cc3OC)c2=O)c1` returned a pKa of 10.

In the case of `O=C1Nc2ccc(Cl)cc2C1(c1c[nH]c2ccccc12)c1c[nH]c2ccccc12`, the pKa is -6.84.

In turn, `Cc1nc(N)ncc1CNC(=O)Cn1c(C)cnc(NCC(F)(F)c2ccccc2)c1=O` showed a pKa of 4.2.

Turning to `CS(=O)(=O)Nc1ccc(Nc2c3ccccc3nc3ccccc23)cc1`, the pKa came out at 7.19.

`CCCCCOC(=O)c1ccc(OS(N)(=O)=O)cc1` yielded a pKa of 8.47.

Molecule `Cc1cnc(NCC(F)(F)c2ccccc2)c(=O)n1CC(=O)NCc1cnc(N)cn1` showed a pKa of 2.7.

The molecule `C/C(=N\N=C(/S)N/N=C(\S)Nc1ccccc1Cl)c1ccccn1` came in with a pKa of 7.24.

As for `Clc1cc(Cl)c(N=C2NCCN2)c(Cl)c1`, the pKa was 7.75.

`Clc1cccc(Cl)c1NC1=NCCN1` came in with a pKa of 8.05.

In turn, `CCCCCS(=O)(=O)Nc1ccc(Nc2c3ccccc3nc3ccccc23)cc1` yielded a pKa of 7.19.

`CCCCN`: the pKa was found to be 10.7.

In turn, `CC12CC3CC(C)(C1)CC(N)(C3)C2` showed a pKa of 10.4.

Turning to `CCCCNC(=O)c1cccc2c(Nc3ccc(NS(C)(=O)=O)cc3OC)c3ccccc3nc12`, the pKa was 6.36.

Molecule `COC(=O)c1ccc(Nc2c3ccccc3nc3ccccc23)cc1` returned a pKa of 6.21.

`Cc1cccc2c(Nc3ccc(NS(C)(=O)=O)cc3)c3ccccc3nc12` registered a pKa of 7.15.

The molecule `OCCOCCN1CCN(C(c2ccccc2)c2ccc(Cl)cc2)CC1` (stereo unspecified) displayed a pKa of 7.75.

In the case of `CC(=O)Nc1ccc(Nc2c3ccccc3nc3ccccc23)cc1`, the pKa is 7.51.

In the case of `C[C@]12CC[C@H]3[C@@H](CCC4=CC(=O)CC[C@@]43C)[C@@H]1CC[C@@H]2O`, the pKa worked out at 4.48.

`FC1(Cc2ccccc2)CCN(CCCc2c[nH]c3ccc(-n4cnnc4)cc23)CC1` displayed a pKa of 8.8.

`Cc1cc(Cl)cc(C)c1N=C1NCCN1` displayed a pKa of 10.2.

`Cn1ccnc1Br` returned a pKa of 3.82.

As to `COc1cc(NS(C)(=O)=O)ccc1Nc1c2ccccc2nc2c(C(N)=O)cccc12`, the pKa was found to be 6.37.

In turn, `Cl.Cl.NCCS` showed a pKa of 9.11.

The molecule `Ic1ccccc1Nc1c2ccccc2nc2ccccc12` came in with a pKa of 6.47.

As for `CNCCCC12CCC(c3ccccc31)c1ccccc12`, the pKa is 10.5.

Take `C[C@H](O)c1nccc(N2C[C@@H](C)N(c3ccnc([C@@H](C)O)n3)[C@@H](C)C2)n1`: the pKa is 6.

In turn, `OB(O)c1ccccc1` gave a pKa of 8.8.

The molecule `COC(=O)c1ccc(OS(N)(=O)=O)cc1` displayed a pKa of 8.28.

Molecule `CCN(CCN(CC(=O)O)CC(=O)O)CCN(CC(=O)O)CC(=O)O` registered a pKa of 2.8.

Molecule `O=C(c1ccc(C(F)(F)F)cc1)N1CCC(=Cc2ccc(C3=NCCO3)cc2)CC1` showed a pKa of 4.7.

Molecule `BP(=O)(OC[C@H]1O[C@@H](n2cnc3c(N)nc(SC)nc32)[C@H](O)[C@@H]1O)OP(=O)(O)C(F)(F)P(=O)(O)O` (stereo partly specified) returned a pKa of 7.

Molecule `COc1cc2nc(N3CCN(C(=O)C4CCCO4)CC3)nc(N)c2cc1OC` (stereo unspecified) gave a pKa of 7.1.

`CN1CCN(Cc2ccc(S(=O)(=O)c3csc(S(N)(=O)=O)c3)cc2)CC1.Cl`: the pKa came to 7.4.

Turning to `CCc1ncc[nH]1`, the pKa stood at 7.73.

For `c1ccc(CN2CCN(CCCc3c[nH]c4ccc(-n5cnnc5)cc34)CC2)cc1`, the pKa came to 8.2.

`Cc1ccccc1N=C1NCCN1` had a pKa of 10.2.

`COC(=O)Nc1ccc2c(Nc3ccc(NS(C)(=O)=O)cc3)c3ccccc3nc2c1` gave a pKa of 7.48.

Consider `Cc1ccc(-c2nc3ccc(C)cn3c2CC(=O)N(C)C)cc1`, for which the pKa turned out to be 6.02.

Take `Cc1ccc(NS(=O)(=O)Cc2ccccc2)c(=O)n1CC(=O)NCc1ccc(C(=N)N)s1`: the pKa was determined as 10.3.

With `COc1cc(NS(C)(=O)=O)ccc1Nc1c2ccccc2nc2c(Br)cccc12`, the pKa turned out to be 6.09.

`CNc1cccc(Nc2c3ccccc3nc3ccccc23)c1`: the pKa stood at 7.61.

For `O=C(C1CCN(c2ccncc2)CC1)N1CCN(S(=O)(=O)c2ccc(Br)cc2)CC1`, the pKa is 9.2.

For the molecule `COc1ccc2c(c1)N(C[C@H](C)CN(C)C)c1ccccc1S2`, the pKa turned out to be 9.19.

Turning to `COc1cc(NS(C)(=O)=O)ccc1Nc1c2ccccc2nc2cc(C#N)ccc12`, the pKa is 5.94.

The molecule `Cc1cc(Cl)ccc1N=C1NCCN1` gave a pKa of 9.99.

Molecule `Cc1cc(=O)oc2cc(O)ccc12` registered a pKa of 7.8.

For `O=c1n(CCCN2CCN(c3cccc(Cl)c3)CC2)nc2ccccn12`, the pKa was 6.7 and 6.73 and 6.79.

`Cc1nc2c(OCc3ccccc3)nccn2c1N`: the pKa was 4.6.

`O=C(O)[C@H]1O[C@@H](O)[C@H](O)[C@@H](O)[C@@H]1O` displayed a pKa of 3.2.

`COc1ccccc1Nc1c2ccccc2nc2ccccc12` had a pKa of 7.74.

`CCNc1ccc(Nc2c3ccccc3nc3ccccc23)cc1` gave a pKa of 8.3.

`CCCCCCOC(=O)NCCCC(C)Nc1cc(OC)cc2cccnc12` (stereo unspecified): the pKa was determined as 16.2.

In the case of `CN1CC(C)(c2cccc(NC(=O)c3ccc(Cl)cn3)c2)N=C(N)C1=O` (stereo unspecified), the pKa was 7.6.

Molecule `COc1cc(NS(C)(=O)=O)ccc1Nc1c2ccccc2nc2ccc(I)cc12` had a pKa of 6.6.

Take `Cc1nc2c3c(ccn2c1CC#N)CCC(c1ccccc1)O3` (stereo unspecified): the pKa was determined as 6.

Take `CC12CC3CC(C1)CC(N)(C3)C2`: the pKa is 10.6.

`CN(C)CCCC(C)(C)c1ccc(C(C)(C)C)cc1` registered a pKa of 9.8.

As to `Brc1ncc[nH]1`, the pKa worked out at 3.79.

With `CCCCS(=O)(=O)Nc1ccc(Nc2c3ccccc3nc3ccccc23)cc1`, the pKa was 7.18.

Turning to `CC(C)(C)NCC(O)c1ccc(O)c(CO)c1` (stereo unspecified), the pKa is 9.3.

Take `CO/N=C(\C#N)C1CN2CCC1CC2` (stereo unspecified): the pKa came to 8.96.

`CN(C)CCCN1c2ccccc2Sc2ccccc21` returned a pKa of 9.4.

`Cc1cnc(NCCc2ccccc2)c(=O)n1CC(=O)NCc1ccc(C(=N)N)s1` displayed a pKa of 10.3.

As for `CS(=O)(=O)Nc1ccc(Nc2c3ccccc3nc3ccccc23)c(N)c1`, the pKa was found to be 7.65.

`c1cncc(Nc2c3ccccc3nc3ccccc23)c1` registered a pKa of 6.46.

The molecule `Oc1nsc2c1CCNC2` registered a pKa of 8.5.

`O=S(=O)(O)CCc1ccc(Nc2c3ccccc3nc3ccccc23)cc1` gave a pKa of 7.77.

`COc1cc(NS(C)(=O)=O)ccc1Nc1c2ccccc2nc2cc(Br)ccc12` had a pKa of 6.84.

`CC(C)NCC(O)COc1ccc(CCNC(=O)NC(C)C)cc1` (stereo unspecified): the pKa was 9.18.

The molecule `CS(=O)(=O)Nc1ccc(Nc2c3ccccc3nc3ccc([N+](=O)[O-])cc23)cc1` displayed a pKa of 5.42.

`O=c1[nH]c2cc(Cl)ccc2c(O)c1-c1ccccc1` displayed a pKa of 5.4.

For `Brc1cc(Br)c(N=C2NCCN2)c(Br)c1`, the pKa amounted to 7.46.

The molecule `CS(=O)(=O)Nc1ccc(Nc2c3ccccc3nc3c([N+](=O)[O-])cccc23)cc1` gave a pKa of 4.88.

As for `CC(=O)Nc1ccccc1Nc1c2ccccc2nc2ccccc12`, the pKa came out at 7.24.

The molecule `Nc1ccc(S(=O)(=O)Nc2ccc(Nc3c4ccccc4nc4ccccc34)cc2)cc1` came in with a pKa of 7.15.

Molecule `CC(=O)Nc1ccc2c(Nc3ccc(NS(C)(=O)=O)cc3)c3ccccc3[nH+]c2c1.CS(=O)(=O)[O-]` showed a pKa of 7.34.

`CN(C)CCCN1c2cc(F)ccc2CCc2ccc(F)cc21.Cl` came in with a pKa of 7.6.

In turn, `CN1CCN(Cc2ccccc2S(=O)(=O)c2csc(S(N)(=O)=O)c2)CC1.Cl` showed a pKa of 6.4.

`CCCCOC(=O)c1ccc(OS(N)(=O)=O)cc1`: the pKa was found to be 8.07.

`CCC12CCC(=O)C=C1c1c(cc(OCC(=O)OCC(=O)O)c(Cl)c1Cl)C2` (stereo unspecified) gave a pKa of 3.8.

`c1ccc(Nc2c3ccccc3nc3ccccc23)nc1` returned a pKa of 6.32.

The molecule `COC(=O)C1=C(C)NC(C)=C(C(=O)OCCN(C)Cc2ccccc2)C1c1cccc([N+](=O)[O-])c1` (stereo unspecified) came in with a pKa of 7.6.

With `O=[N+]([O-])c1ccc(Nc2c3ccccc3nc3ccccc23)cc1`, the pKa amounted to 5.58.

For the molecule `CNc1ccc2c(Nc3ccc(NS(C)(=O)=O)cc3)c3ccccc3nc2c1`, the pKa stood at 9.3.

In the case of `COc1cc(NS(C)(=O)=O)ccc1Nc1c2ccccc2nc2c(-c3ccccc3)cccc12`, the pKa came out at 7.02.

With `COc1cc(NS(C)(=O)=O)ccc1Nc1c2ccccc2nc2c(C(=O)N(C)C)cccc12`, the pKa stood at 6.16.

Regarding `Nc1cccc(Nc2c3ccccc3nc3ccccc23)c1`, the pKa worked out at 7.58.

Take `CN(C)c1ccc(Nc2c3ccccc3nc3ccccc23)cc1`: the pKa was 8.46.

Molecule `COc1cc(NS(C)(=O)=O)ccc1Nc1c2ccccc2nc2c(C(=O)NCC(O)CO)cccc12` (stereo unspecified) came in with a pKa of 6.34.

For the molecule `Cc1ccc(C(=O)N(CCCN)[C@@H](c2oc3cc(Cl)ccc3c(=O)c2Cc2ccccc2)C(C)C)cc1`, the pKa worked out at 8.5.

As for `CN(C)C(=O)Oc1cccc([N+](C)(C)C)c1`, the pKa was 19.1.

`Cc1ccc(NS(=O)(=O)Cc2ccccc2)c(=O)n1CC(=O)NCc1nc(CN)cs1` returned a pKa of 7.4.

Consider `c1cnon1`, for which the pKa is -5.
